Data: ChEMBL document CHEMBL1157877, “Design, synthesis and biological evaluation of new ionone derivatives as potential neuroprotective agents in cerebral ischemia” (2010)

Assays:
Format in all cases: functional
Neuron [1] = assay: Neuroprotective effect against H202-induced Sprague-Dawley rat neuron injury assessed as necrotic cells by annexin V-propidium iodide staining by flow cytometry (reference value: 1.02% +/-0.4%)
Neuron [2] = assay: Neuroprotective effect against H202-induced Sprague-Dawley rat neuron injury assessed as apoptic cells by annexin V-propidium iodide staining by flow cytometry; parameters: concentration or dose not given beside the values
Neuron [3] = assay: Neuroprotective effect against H202-induced Sprague-Dawley rat neuron injury assessed as late apoptic cells by annexin V-propidium iodide staining by flow cytometry (Rvb= 2.22%+/-0.70%)
Neuron [4] = assay: Neuroprotective effect against H202-induced Sprague-Dawley rat neuron injury assessed as early apoptic cells by annexin V-propidium iodide staining by flow cytometry (reference value: 3.09% +/- 1.40%)
Neuron [5] = assay: Neuroprotective effect against H202-induced Sprague-Dawley rat neuron injury assessed as viable cells by annexin V-propidium iodide staining by flow cytometry (reference value: 93.66%+/-2.19%)
Neuron [6] = assay: Neuroprotective effect against H202-induced Sprague-Dawley rat neuron injury assessed as cell viability by annexin V-propidium iodide staining by flow cytometry

Compound | Activity (Neuron [1]) | Activity (Neuron [2]) | Activity (Neuron [3]) | Activity (Neuron [4]) | Activity (Neuron [5]) | Activity (Neuron [6])
CC1=CCCC(C)(C)C1/C=C/C(C)(O)c1ccc(C(F)(F)F)cc1 (stereo unspecified) | 0.057% | 72.6% | 22.23% | 72.6% | 5.09% | –
CC1=CCCC(C)(C)C1/C=C/C(C)(O)c1ccc(C(C)(C)C)cc1 (stereo unspecified) | 0.05% | 62.1% | 30.4% | 62.1% | 7.36% | –
COc1ccc(C(C)(O)/C=C/C2C(C)=CCCC2(C)C)cc1OC (stereo unspecified) | 0.065% | 57.36% | 38.5% | 57.36% | 3.9% | –
CC1=CCCC(C)(C)C1/C=C/C(C)(O)c1ccsc1 (stereo unspecified) | 0.025% | 50.9% | 42.09% | 50.9% | 6.8% | –
CSc1ccc(C(C)(O)/C=C/C2C(C)=CCCC2(C)C)cc1 (stereo unspecified) | 0.58% | – | 15.43% | 50.55% | 33.43% | –
COc1ccccc1C(C)(O)/C=C/C1C(C)=CCCC1(C)C (stereo unspecified) | 0.42% | – | 15.2% | 39.8% | 44.4% | –
CCCOc1ccc(C(C)(O)/C=C/C2C(C)=CCCC2(C)C)cc1 (stereo unspecified) | 3% | – | 0.7% | 4.31% | 91.9% | –
CCOc1ccc(C(C)(O)/C=C/C2C(C)=CCCC2(C)C)cc1 (stereo unspecified) | 1.32% | – | 16.3% | 31.4% | 50.8% | –
COc1ccc(C(C)(O)/C=C/C2=C(C)CCCC2(C)C)cc1 (stereo unspecified) | 3.42% | – | 9.06% | 12.2% | 75.25% | 75.25%
COc1cccc(C(C)(O)/C=C/C2=C(C)CCCC2(C)C)c1 (stereo unspecified) | 7.39% | – | 5.35% | 4.95% | 82.3% | –
CC1=CCCC(C)(C)C1/C=C/C(C)(O)c1cc(C)ccc1C (stereo unspecified) | 0.045% | 55.1% | 38.3% | 55.1% | 6.4% | –
COc1ccc(C(C)(O)/C=C/C2C(C)=CCCC2(C)C)cc1 (stereo unspecified) | 1.14% | – | 19.72% | 41.37% | 37.75% | –
CCCCCOc1ccc(C(C)(O)/C=C/C2C(C)=CCCC2(C)C)cc1 (stereo unspecified) | 0.61% | – | 12.7% | 25.77% | 60.91% | –
CSc1ccc(C(C)(O)/C=C/C2=C(C)CCCC2(C)C)cc1 (stereo unspecified) | 0.21% | – | 2.5% | 30.89% | 66.4% | –
CCCCCOc1ccc(C(C)(O)/C=C/C2=C(C)CCCC2(C)C)cc1 (stereo unspecified) | 0.26% | – | 4.02% | 26.48% | 69.25% | –
CCCOc1ccc(C(C)(O)/C=C/C2=C(C)CCCC2(C)C)cc1 (stereo unspecified) | 0.52% | – | 16.6% | 53.84% | 29% | –
CCOc1ccc(C(C)(O)/C=C/C2=C(C)CCCC2(C)C)cc1 (stereo unspecified) | 0.93% | – | 15.62% | 50.34% | 33.1% | –
COc1cccc(C(C)(O)/C=C/C2C(C)=CCCC2(C)C)c1 (stereo unspecified) | 3.89% | – | 9.4% | 25.02% | 61.7% | 61.7%
CC1=CCCC(C)(C)C1/C=C/C(C)(O)c1ccccc1 (stereo unspecified) | 0.05% | 62.9% | 30.47% | 62.9% | 6.5% | –
COc1ccccc1C(C)(O)/C=C/C1=C(C)CCCC1(C)C (stereo unspecified) | 0.32% | – | 14.5% | 66.1% | 19% | –
COc1cc(/C=C/C(=O)CC(=O)/C=C/c2ccc(O)c(OC)c2)ccc1O [CURCUMIN] | 1.89% | – | 7.3% | 24.15% | 79.9% | –
C[C@]12N[C@H](Cc3ccccc31)c1ccccc12.O=C(O)/C=C\C(=O)O [DIZOCILPINE MALEATE] | 1.96% | – | 1.56% | 14.9% | 82.45% | –
